Data taken from patent US20200236933A1, “USE OF A NON-IONIC SURFACTANT WHICH IS A POLYOL DERIVATIVE AS A PLANT GROWTH STIMULATING AGENT OR AS AN ADJUVANT” (priority 2017, published 2020).

Assays:
[1] = system: Helminthosphaeria; assay: Reduction of phytosanitary products on maize; type: in vivo, maize (P7043, Pioneer); conditions: 25% of recommended dose (0.25 L/ha Amistar + 0.6 L/ha Cicero) plus 3 L/ha sucrose stearate; 12-14 leaf stage
Experimental: Assays in a climate-controlled chamber were carried out on maize ([…], Pioneer). The maize was sowed in containers of 1 meter by 1 meter. […] […]® comprises the active ingredient: azoxystrobin (belonging to the strobilurin family), and Cicero® comprises two active ingredients: chlorothalonil (belonging to the chloronitrile family), and flutriafol (belonging to the triazole family). […] The containers were then taken out of the climate-controlled chamber and disposed near a field having more than 50% of maize plants diseased with Helminthosphaeria. After 1 day, the containers were placed back in the climate-controlled chamber under controlled conditions.

[2] = system: winter barley (Sobell variety); assay: Yield of winter barley in climate controlled chamber; type: in vivo; conditions: 3 l/ha of 3% solution sprayed at commencement of tillering
Experimental: Assays in a climate controlled chamber (temperature 22° C./20° C., photoperiod 16 h/8 h, 25,000 lux) were carried out on winter barley (Sobell variety, Arvalis). The barley was sowed in containers of 1 meter by 1 meter.
The plants were then watered every 2 weeks with the same amount of water for both control batch and treated batch.
The yields were then calculated as the ratio of the weight of harvested seeds to the sowed area. This ratio is expressed in q/ha.

[3] = system: parsley seeds; assay: Germination of parsley seeds after immersion treatment; type: in vivo; conditions: parsley seeds immersed 1 h in 0.75% solution
Experimental: The seeds are next dried in a heating tunnel at 45° C. for one hour. Two batch repetitions of 48 seeds are deposited on Petri dishes containing a medium composed of 2% Agar Agar and 98% water.
The Petri dishes are kept at ambient temperature and in darkness. Each day the number of seeds that have germinated (having a radicle) is counted.

[4] = Drift limitation: size of drops after spraying; type: physicochemical; conditions: 2.5% with 5% titanium dioxide; 2, 4 and 8 bars
Source text: Increasing pressures (2, 4 and 8 bars) were used in order to test different conditions (FIG. 21: a, b and c respectively). The greater the pressure the more numerous and fine were the drops.

[5] = system: parsley plants; assay: Protein content of parsley; type: in vivo; conditions: 40 ml of 0.75% solution every three days, 23 days
Experimental: Each batch consists of four pots. After 23 days of treatment the leaves are cut and an analysis of the amount of protein is carried out.

## sucrose stearate
[1]
  plants presenting Helminthosphaeria spots: less than 10%
[2]
  Yield: 67.9 q/ha
  yield increase: 25%
[3]
  increase of the germination kinetics on average: 10%
[3]; between 4 days and 6 days
  germinated seeds, treated batch compared with the control batch: 2 times
[4]
  size of the drops after spraying: enables an increase the size of the drops
[5]
  increase in the protein amount compared with the control batch: 56%
